Assay results reported in patent US20220380319A1 (Bial - R&D Investments, S.A., priority 2019, published 2022).
≈ marks a conversion by molar mass, not a printed value.

Assays:
[1] = biological target: T1, acid ceramidase (Homo sapiens, UniProt Q13510); assay: Acid ceramidase inhibition, biochemical fluorescent assay with cell lysates overexpressing acid ceramidase, substrate Rbm14-12; details: substrate Rbm14-12 6.3 μM
T1 construct: Cell lysates overexpressing acid ceramidase were used as the enzyme source; expressed in transfected cells
T1 sequence (Q13510 22-395): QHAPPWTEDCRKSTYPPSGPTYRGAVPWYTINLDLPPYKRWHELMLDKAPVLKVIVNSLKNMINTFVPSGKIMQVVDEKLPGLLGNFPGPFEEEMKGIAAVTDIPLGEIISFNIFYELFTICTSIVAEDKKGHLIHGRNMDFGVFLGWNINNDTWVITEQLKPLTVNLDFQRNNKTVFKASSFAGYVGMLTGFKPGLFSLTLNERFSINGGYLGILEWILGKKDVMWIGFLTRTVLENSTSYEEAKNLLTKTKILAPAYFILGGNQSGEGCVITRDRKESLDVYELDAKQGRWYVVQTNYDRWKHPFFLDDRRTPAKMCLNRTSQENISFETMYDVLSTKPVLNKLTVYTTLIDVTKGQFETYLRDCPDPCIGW
Procedure, shortened: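 IC50 derived by four-parameter fitting of fluorescence (ex360 nm, em446 nm) produced after 1 hr in methanol/NaIO4/glycine stop buffer, pH 10.6. Reaction: 6.3 μM Rbm14-12, 1 hr RT, following 1 hr RT compound preincubation with 10 μg overexpressing-cell lysate protein in pH 4.5 NaAC/NaCl buffer.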

[2] = Compound solubility in water
[3] = pH 4.5, 1 hr preincubation at RT

Structure (SMILES) | IC50 ([1]; pH 4.5) | solubility [2] | IC50 [1, 3]
O=C(NCCc1ccccc1)n1cnc2cccnc21 [Example 19b, N-phenethyl-3H-imidazo[4,5-b]pyridine-3-carboxamide] |  | 24.5 µg/mL (≈ 92 µM) | < 200 nM
CN1CCN(c2cccc3c2ncn3C(=O)NCCCc2ccccc2)CC12CC2 [Example 250, 4-(4-Methyl-4,7-diazaspiro[2.5]octan-7-yl)-N-(3-phenylpropyl)-1H-benzo[d]imidazole-1-carboxamide] | < 200 nM | 23 µg/mL (≈ 57 µM) | 
CC(C)CCNC(=O)n1c(=O)n(C)c2ncc(-c3cccnc3)cc21 [Example 110, N-iso-Pentyl-3-methyl-2-oxo-6-(pyridin-3-yl)-2,3-dihydro-1H-imidazo[4,5-b]pyridine-1-carboxamide] |  | 18 µg/mL (≈ 53 µM) | > 1000 nM
COC1(C)CN(c2cccc3c2ncn3C(=O)NCCC(C)C)C1 [Example 177, N-iso-Pentyl-4-(3-methoxy-3-methylazetidin-1-yl)-1H-benzo[d]imidazole-1-carboxamide] | 200 to 1000 nM | 13 µg/mL (≈ 39.3 µM) | 
CC(C)CNC(=O)n1cnc2c(C(F)(F)F)c(-c3cncnc3)ccc21 [Example 76, N-iso-Butyl-5-(pyrimidin-5-yl)-4-(trifluoromethyl)-1H-benzo[d]imidazole-1-carboxamide] |  | 10 µg/mL (≈ 27.5 µM) | < 200 nM
CN1CCN(c2cccc3c2ncn3C(=O)NCC#Cc2cccc(F)c2)CC1 [Example 337, N-(3-(3-Fluorophenyl)prop-2-yn-1-yl)-4-(4-methylpiperazin-1-yl)-1H-benzo[d]imidazole-1-carboxamide] |  | 15 µg/mL (≈ 38.3 µM) | < 200 nM
CN1CC2CN(c3cccc4c3ncn4C(=O)NCCCc3ccccc3)CC2C1 (stereo not drawn) [Example 266, 4-(5-Methylhexahydropyrrolo[3,4-c]pyrrol-2(1H)-yl)-N-(3-phenylpropyl)-1H-benzo[d]imidazole-1-carboxamide] | < 200 nM | 34 µg/mL (≈ 84.3 µM) | 
Cn1c(=O)n(C(=O)NCCc2ccccc2)c2ncccc21 [Example 88, 1-Methyl-2-oxo-N-phenethyl-1,2-dihydro-3H-imidazo[4,5-b]pyridine-3-carboxamide] |  | 26.4 µg/mL (≈ 89.1 µM) | < 200 nM
CN1CCN(C2CN(c3cccc4c3ncn4C(=O)NCCc3ccccc3)C2)CC1 [Example 349, 4-(3-(4-Methylpiperazin-1-yl)azetidin-1-yl)-N-phenethyl-1H-benzo[d]imidazole-1-carboxamide] |  | 37 µg/mL (≈ 88.4 µM) | 200 to 1000 nM
CN1C2CC1CN(c1cccc3c1ncn3C(=O)NCCCc1ccccc1)C2 [Example 243, 4-(6-Methyl-3,6-diazabicyclo[3.1.1]heptan-3-yl)-N-(3-phenylpropyl)-1H-benzo[d]imidazole-1-carboxamide] | < 200 nM | 28 µg/mL (≈ 71.9 µM) | 
O=C(NCCc1ccccc1)n1cnc2cc(-c3cncnc3)ccc21 [Example 8a, N-Phenethyl-5-(pyrimidin-5-yl)-1H-benzo[d]imidazole-1-carboxamide] |  | 3.7 µg/mL (≈ 10.8 µM) | < 200 nM
CCCCCNC(=O)n1cnc2ccccc21 [Example 23, N-Pentyl-1H-benzo[d]imidazole-1-carboxamide] |  | 13.3 µg/mL (≈ 57.5 µM) | < 200 nM
CC(C)Oc1nc2ccccc2n1C(=O)NCCc1ccccc1 [Example 35, 2-iso-Propoxy-N-phenethyl-1H-benzo[d]imidazole-1-carboxamide] |  | 0.7 µg/mL (≈ 2.16 µM) | < 200 nM
CN(C)C1CN(c2cccc3c2ncn3C(=O)NCCOc2ccccc2)C1 [Example 353, 4-(3-(Dimethylamino)azetidin-1-yl)-N-(2-phenoxyethyl)-1H-benzo[d]imidazole-1-carboxamide] |  | 16 µg/mL (≈ 42.2 µM) | < 200 nM
CN1[C@@H]2CC[C@H]1CN(c1cccc3c1ncn3C(=O)NCCCc1ccccc1)C2 [Example 240, 4-((1R,5S)-8-Methyl-3,8-diazabicyclo[3.2.1]octan-3-yl)-N-(3-phenylpropyl)-1H-benzo[d]imidazole-1-carboxamide] | 200 to 1000 nM | 28 µg/mL (≈ 69.4 µM) | 
[2H]c1nc2ccccc2n1C(=O)NCCc1ccccc1 [Example 128, N-Phenethyl-1H-benzo[d]imidazole-2-d-1-carboxamide] |  | 15 µg/mL (≈ 56.3 µM) | < 200 nM
CN1CCN(c2cccc3c2ncn3C(=O)NCC#CCC2CC2)CC1 [Example 284] | < 200 nM | 30 µg/mL (≈ 85.4 µM) | 
CN1C2CCC1CN(c1cccc3c1ncn3C(=O)NCCC1CCC(F)(F)C1)C2 (stereo not drawn) [Example 289, N-(2-(3,3-Difluorocyclopentyl)ethyl)-4-(8-methyl-3,8-diazabicyclo[3.2.1]octan-3-yl)-1H-benzo[d]imidazole-1-carboxamide] | 200 to 1000 nM | 39 µg/mL (≈ 93.4 µM) | 
CN1CCN(c2cccc3c2ncn3C(=O)NCCOc2ccccc2)CC1CC#N (stereo not drawn) [Example 317, 4-(3-(Cyanomethyl)-4-methylpiperazin-1-yl)-N-(2-phenoxyethyl)-1H-benzo[d]imidazole-1-carboxamide] | < 200 nM | 26 µg/mL (≈ 62.1 µM) | 
CCCCNC(=O)n1cnc2c(F)cccc21 [Example 68, N-Butyl-4-fluoro-1H-benzo[d]imidazole-1-carboxamide] |  | 20.6 µg/mL (≈ 87.6 µM) | < 200 nM
CN1CCN(c2cccc3c2ncn3C(=O)NCC#CC2CC2)CC1 [Example 283, N-(3-Cyclopropylprop-2-ynyl)-4-(4-methylpiperazin-1-yl)-1H-benzo[d]imidazole-1-carboxamide] | < 200 nM | 28 µg/mL (≈ 83 µM) | 
CC(C)CCNC(=O)n1cnc2c(N3CCN(C4CN(C)C4)CC3)cccc21 [Example 204, N-iso-Pentyl-4-(4-(1-methylazetidin-3-yl)-piperazin-1-yl)-1H-benzo[d]imidazole-1-carboxamide] | 200 to 1000 nM | 36 µg/mL (≈ 93.6 µM) | 
Cc1ccc(CNC(=O)n2cnc3c(N4CCN(C)CC4)cccc32)cc1 [Example 323, N-(4-Methylbenzyl)-4-(4-methylpiperazin-1-yl)-1H-benzo[d]imidazole-1-carboxamide] | < 200 nM | 16 µg/mL (≈ 44 µM) | 
CCN1CCN(c2cccc3c2ncn3C(=O)NCCC2CCC(F)(F)C2)CC1 (stereo not drawn) [Example 291, N-(2-(3,3-Difluorocyclopentyl)ethyl)-4-(4-ethylpiperazin-1-yl)-1H-benzo[d]imidazole-1-carboxamide] | 200 to 1000 nM | 20 µg/mL (≈ 49.3 µM) | 
O=C(NCCCc1ccccc1)n1cnc2c(N3CCN4CCCC4C3)cccc21 (stereo not drawn) [Example 239, 4-(Hexahydropyrrolo[1,2-a]pyrazin-2(1H)-yl)-N-(3-phenylpropyl)-1H-benzo[d]imidazole-1-carboxamide] | < 200 nM | 17 µg/mL (≈ 42.1 µM) | 
COc1cccc2c1ncn2C(=O)NCCOc1ccccc1 [Example 71, 4-Methoxy-N-(2-phenoxyethyl)-1H-benzo[d]imidazole-1-carboxamide] |  | 9.1 µg/mL (≈ 29.2 µM) | < 200 nM
O=C(NCCCc1ccccc1)n1cnc2c(N3CCOCC3)cccc21 [Example 142, 4-Morpholino-N-(3-phenylpropyl)-1H-benzo[d]imidazole-1-carboxamide] |  | 1.4 µg/mL (≈ 3.84 µM) | < 200 nM

Now from value to compound:

IC50 ([1]; pH 4.5) | solubility [2] | IC50 [1, 3] | Structure (SMILES)
> 1000 nM | 33 µg/mL (≈ 74.6 µM) |  | COc1nc2cc(N3CCN(C4CN(C)C4)CC3)c(F)cc2n1C(=O)NCC#CC(C)C [Example 320a, 6-Fluoro-2-methoxy-5-(4-(1-methylazetidin-3-yl)piperazin-1-yl)-N-(4-methylpent-2-yn-1-yl)-1H-benzo[d]imidazole-1-carboxamide]
 | 3.6 µg/mL (≈ 9.46 µM) | 200 to 1000 nM | COc1nc2cc(N3CCOCC3)ccc2n1C(=O)NCCc1ccccc1 [Example 29b, 2-methoxy-5-morpholino-N-phenethyl-1H-benzo[d]imidazole-1-carboxamide]
< 200 nM | 15 µg/mL (≈ 36.4 µM) |  | COc1nc2cc(N3CCOCC3)ccc2n1C(=O)NCCCc1ccc(F)cc1 [Example 221b]
< 200 nM | 3 µg/mL (≈ 7.04 µM) |  | COc1nc2cc(N3CCOCC3)ccc2n1C(=O)NCCCC1(C(F)(F)F)CC1 [Example 183b, 2-methoxy-5-morpholino-N-(3-(1-(trifluoromethyl)cyclopropyl)propyl)-1H-benzo[d]imidazole-1-carboxamide]
< 200 nM | 23 µg/mL (≈ 52.8 µM) |  | COc1nc2ccc(N3CCN(C(C)=O)CC3)cc2n1C(=O)NCCCc1ccccc1 [Example 236b, 6-(4-acetylpiperazin-1-yl)-2-methoxy-N-(3-phenylpropyl)-1H-benzo[d]imidazole-1-carboxamide]
< 200 nM | 27 µg/mL (≈ 69 µM) |  | C[C@H](CCNC(=O)n1cnc2c(N3CCN(C)CC3)cccc21)c1ccccc1 [Example 253b, (R)-4-(4-methylpiperazin-1-yl)-N-(3-phenylbutyl)-1H-benzo[d]imidazole-1-carboxamide]
 | 18.3 µg/mL (≈ 48.1 µM) | < 200 nM | COc1cc2c(cc1N1CCOCC1)ncn2C(=O)NCCc1ccccc1 [Example 38b, 6-methoxy-5-morpholino-N-phenethyl-1H-benzo[d]imidazole-1-carboxamide]
 | 12.6 µg/mL (≈ 44.2 µM) | < 200 nM | CCCCNC(=O)n1cnc2ccc(C(F)(F)F)cc21 [Example 49b, N-butyl-6-(trifluoromethyl)-1H-benzo[d]imidazole-1-carboxamide]
 | 36.1 µg/mL (≈ 90.6 µM) | 200 to 1000 nM | CCCCNC(=O)n1cnc2cc(N3CCC(N4CCN(C)CC4)CC3)ccc21 [Example 102b, N-butyl-5-(4-(4-methylpiperazin-1-yl)piperidin-1-yl)-1H-benzo[d]imidazole-1-carboxamide]
